A short description of series [1]: Respiratory safety, plethysmography (LPT No. 30283). Particulars: positive control 30 mg/kg b.w.
Series [2] in a line: DOTMA biodistribution, LC/MS.
Another series deals with antigen-specific T cells. In words: IFN-γ ELISPOT of splenocytes of i.v. vaccinated A2/DR1 mice. It is filed as in vivo. Particulars: 30 μg RNA(LIP) i.v., four to five vaccinations.
For another series, the system named is human DCs. In words: IFN-γ secretion of antigen-specific CD8+ T cells co-incubated with RBL005.2-electroporated DCs (Bio-plex). It is filed as cell-based. As to the method:
Antigen-specific CD8^+ T cells were co-incubated with DCs transfected with 0.25, 1, 4, or 16 μg […] different amounts of RBL005.2. As negative controls only effectors, or DCs transfected with irrelevant antigen coding RNA were used. Columns indicate means of two donors and biological duplicates.
In addition, we exemplarily tested the ability of the WAREHOUSE RNA drug product RBL005.2 to generate surface-expressed MHC-class I epitopes after electroporation of the RNAs into human DCs. This was determined by co-incubation of the transfected DCs for 24 h with isolated human CD8^+ T cells equipped with the α- and β-chain of a T-cell receptor (TCR) specific for the HLA-A*0201-restricted epitope […] (CLDN691.99). Activation of the antigen-specific cells was analyzed by IFN-γ Bio-plex bead assay (Bio-Rad Laboratories) of the cell culture supernatants. To consider donor variability each of the test items was analyzed using two different donors. RNA of ATM quality was used. The experiments were carried out using up to 16 μg of the RNAs to electroporate the DCs (Study Report No: STR_21591_003).

The subject of the next series is K562-A2 cells. In words: TCR specificity test, IFN-γ ELISPOT with K562-A2 cells. Type of series: cell-based, human.
Series [3] has as its system CD8+ T cells of healthy donors. As to the kind of experiment: In vitro priming of CD8+ T cells with RBL005.2-transfected autologous mDCs, MHC-dextramer staining. Type of series: cell-based, human. Particulars: three rounds of weekly stimulation.

As to `CC(C[N+](C)(C)C)OC(N)=O.[Cl-]` (stereo not drawn) [Carbamyl-β-methylcholine chloride], in series [1], the Pulmonary parameters result was “expected alterations”.

Consider `CCCCCCCC/C=C\CCCCCCCCOCC(C[N+](C)(C)C)OCCCCCCCC/C=C\CCCCCCCC` (centres unmarked) [DOTMA, 1,2-di-O-octadecenyl-3-trimethylammonium propane], for which, in series [2] (60 μg RNA, one or two injections, 24 h), the “Organ with highest DOTMA findings” value is recorded as “highest DOTMA findings were in the spleen”. Moreover, in series [2] (single RNA(LIP), 26 μg DOTMA, up to 28 days), the DOTMA distribution entry is “predominantly found in spleen and liver”. In addition, the “Factor by which DOTMA is lower in other organs/tissues than spleen and liver” value in series [2] (single dose) was 10-50.

Turning to “RBL008.1: beta-S-ARCA(D1)-hAg-Kozak-sec-GS-p53-GS-MITD-2hBgUTR-A30L70 mRNA, encodes human p53 (SEQ ID NO: 7)”, in the series with antigen-specific T cells, the “Antigen-specific T-cell responses (IFN-γ ELISPOT)” value (“Antigen-specific T-cell responses” for short) is “induced antigen-specific T-cell responses in vivo in mice expressing human HLA-molecules”.

“RBL012.1: beta-S-ARCA(D1)-hAg-Kozak-sec-GS-PRAME-GS-MITD-2hBgUTR-A30L70 mRNA, encodes human PRAME (SEQ ID NO: 11)”: the “Antigen-specific T-cell responses” value with antigen-specific T cells is given as “induced antigen-specific T-cell responses in vivo in mice expressing human HLA-molecules”.

B1: RBL005.2: beta-S-ARCA(D1)-hAg-Kozak-CLDN6-2hBgUTR-A30L70 mRNA, encodes human Claudin 6 (SEQ ID NO: 3) (nucleic acid)
chain: GGGCGAACUAGUAUUCUUCUGGUCCCCACAGACUCAGAGAGAACCCGCCACCAUGGCCUCUGCCGGAAUGCAGAUCCUGGGCGUGGUGCUGACCCUGCUGGGCUGGGUGAAUGGCCUGGUGAGCUGUGCCCUGCCCAUGUGGAAGGUGACAGCCUUCAUUGGCAACAGCAUUGUGGUGGCCCAGGUGGUGUGGGAGGGCCUGUGGAUGAGCUGUGUGGUGCAGAGCACAGGCCAGAUGCAGUGCAAGGUGUAUGACAGCCUGCUGGCCCUGCCUCAGGACCUCCAGGCCGCCAGAGCCCUGUGUGUGAUUGCCCUGCUGGUGGCCCUGUUUGGCCUGCUGGUGUACCUGGCUGGAGCCAAGUGCACCACCUGUGUGGAGGAGAAGGACAGCAAGGCCAGACUGGUGCUGACCUCUGGCAUUGUGUUUGUGAUCUCUGGCGUGCUGACCCUGAUCCCUGUGUGCUGGACAGCCCAUGCCAUCAUCAGAGACUUCUACAACCCUCUGGUGGCCGAGGCCCAGAAAAGAGAGCUGGGAGCCAGCCUGUACCUGGGCUGGGCCGCCUCUGGCCUUCUUCUGCUGGGAGGAGGACUGCUGUGCUGCACCUGCCCCUCUGGCGGCAGCCAGGGCCCCAGCCACUACAUGGCCAGAUACAGCACCUCUGCCCCUGCCAUCAGCAGAGGCCCUUCUGAGUACCCCACCAAGAACUAUGUGUGAGGAGGAUCCCCUCGAGAGCUCGCUUUCUUGCUGUCCAAUUUCUAUUAAAGGUUCCUUUGUUCCCUAAGUCCAACUACUAAACUGGGGGAUAUUAUGAAGGGCCUUGAGCAUCUGGAUUCUGCCUAAUAAAAAACAUUUAUUUUCAUUGCUGCGUCGAGAGCUCGCUUUCUUGCUGUCCAAUUUCUAUUAAAGGUUCCUUUGUUCCCUAAGUCCAACUACUAAACUGGGGGAUAUUAUGAAGGGCCUUGAGCAUCUGGAUUCUGCCUAAUAAAAAACAUUUAUUUUCAUUGCUGCGUCGAGACCUGGUCCAGAGUCGCUAGCAAAAAAAAAAAAAAAAAAAAAAAAAAAAAAGCAUAUGACUAAAAAAAAAAAAAAAAAAAAAAAAAAAAAAAAAAAAAAAAAAAAAAAAAAAAAAAAAAAAAAAAAAAAAA
modifications: beta-S-ARCA cap, poly(A); CLDN6 RNA
As to B1, the “Dose dependency of IFN-γ production” value in the series with human DCs (0.25, 1, 4, 16 μg RNA) is “clear dose dependency”. Moreover, the “IFN-γ production by antigen-specific CD8+ T cells” value in the series with human DCs (up to 16 μg RNA electroporated, 24 h, two donors) is given as “able to produce IFN-γ”. Besides, in the series on antigen-specific T cells, the “Antigen-specific T-cell responses” value is reported as “induced antigen-specific T-cell responses in vivo in mice expressing human HLA-molecules”. Moreover, the “Recognition of RBL005.2-transfected K562-A2 cells by isolated TCR” value in the series on K562-A2 cells is reported as “specific recognition”. Besides, the “CD8+ T cells binding HLA-A*02/RBL005.2 91-99 dextramer” value in series [3] is given as 0.462%.

For the origin of these results see patent publication US20220257631A1, “THERAPEUTIC RNA FOR OVARIAN CANCER” (BIONTECH SE, priority 2019, published 2022).
